Data from ChEMBL document CHEMBL4483862, “Open-source discovery of chemical leads for next-generation chemoprotective antimalarials” (2018).

System: Plasmodium berghei
Assay: Luciferase/luciferin-expressing antifolate-resistant parasites were used to infect a culture of HepG2 cells that were pre-incubated with compounds. Infected hepatocytes emit light due to the luciferase reaction. Assay results are presented as the percent inhibition of light emission compared to control. […]
Assay type: functional
Conditions: sporozoite; for IC50: read-out: LUCIFERASE INFECTION ASSAY - IC50; for IC90: read-out: LUCIFERASE INFECTION ASSAY - IC90

For CC(c1cccnc1)N(C)C(=O)c1cc(NCc2ccc3c(c2)CCO3)cc(S(=O)(=O)N2CCCC2)c1 (configuration not stated), the IC50 was over 6.34 µM and the IC90 was over 6.34 µM.

Cc1ccc(C(C)CCN2CCc3c(c(C(=O)NCc4nccs4)nn3CC3CC3)C2)o1 (configuration not stated) showed an IC50 of over 7.28 µM and an IC90 of over 7.28 µM.

Compound COc1cnc(-c2ccccn2)nc1SCc1ccccc1 has an IC50 of 9.29 µM and an IC90 of over 10.7 µM.

O=C1N(CCCc2cccnc2)C(=O)C2(CCN(Cc3ccsc3)CC2)N1Cc1ccccc1 gave an IC50 of over 6.95 µM and an IC90 of over 6.95 µM.

Compound O=C(c1csc2c1CCCC2)N1CCc2c(c(C(=O)N3CCCC3)nn2Cc2ccncc2)C1 has an IC50 of over 6.94 µM and an IC90 of over 6.94 µM.

With CCC(CC)CN1CCC2(CC1)C(=O)N(Cc1ccc(OC)cc1)C(=O)N2CC(C)C the IC50 was over 7.68 µM and the IC90 was over 7.68 µM.

Cc1ccc(C(C)CCN2CCc3c(c(C(=O)NCc4nccs4)nn3Cc3ccccc3)C2)o1 (configuration not stated) showed an IC50 of over 6.74 µM and an IC90 of over 6.74 µM.

With Cc1ccc(C)c(CN2CCC3(CC2)C(=O)N(CCCc2cccnc2)C(=O)N3Cc2ccccc2)c1 the IC50 was 4.38 µM and the IC90 was 5.55 µM.

COc1ccc(CN2C(=O)N(CC(C)C)C3(CCN(Cc4c[nH]c5ccccc45)CC3)C2=O)cc1 showed an IC50 of 6.77 µM and an IC90 of over 6.95 µM.

COc1ccc(-c2cc3c(n(C)c2=O)CCN(C(=O)C(C)n2nc(C)cc2C)C3)c2ccc(C)nc12 (configuration not stated) was tested, and the IC50 was over 6.8 µM and the IC90 was over 6.8 µM.

With COc1cccc(Cn2nc(C(=O)NC3CC3)c3c2CCN(C(=O)c2cc4ccccc4[nH]2)C3)c1 the IC50 was over 7.03 µM and the IC90 was over 7.03 µM.

CCOC(=O)c1nn(CC2CC2)c2c1CN(CC(C)Cc1ccc3c(c1)OCO3)CC2 (configuration not stated) showed an IC50 of over 7.76 µM and an IC90 of over 7.76 µM.

Compound COC(=O)c1c(NC(C)=O)c2cc(NC(C)Cc3ccccc3F)cnc2n1CCC(C)C (configuration not stated) has an IC50 of over 7.26 µM and an IC90 of over 7.26 µM.

Cc1ccc(NC(=O)c2cccn(Cc3ccc(C(F)(F)F)cc3)c2=O)cc1C was tested, and the IC50 was over 8.24 µM and the IC90 was over 8.24 µM.

CN1CCN(S(=O)(=O)c2cc(C(=O)NCc3ccccc3F)cc(-c3ccccc3)c2)CC1 was tested, and the IC50 was 6.09 µM and the IC90 was over 7.06 µM.

COC(=O)c1c(NC(C)=O)c2cc(NC(C)CC(C)C)cnc2n1CCC(C)C (configuration not stated) showed an IC50 of over 8.2 µM and an IC90 of over 8.2 µM.

Compound CN1C(=O)N(CCc2ccccc2)C(=O)C12CCN(Cc1ccc3c(c1)Cc1ccccc1-3)CC2 has an IC50 of 6.49 µM and an IC90 of over 7.09 µM.

COC(=O)c1c(NC(=O)c2cccnc2)c2cc(NCC(C)C)cnc2n1CC(C)C showed an IC50 of over 7.79 µM and an IC90 of over 7.79 µM.

With CCn1nc(C)c(CN2CCC3(CC2)C(=O)N(Cc2ccccc2)C(=O)N3CCc2ccccc2)c1C the IC50 was 2.92 µM and the IC90 was over 6.6 µM.

CNC(=O)c1nn(CCc2ccccc2)c2c1CC(NCCC(C)C)CC2 (configuration not stated) gave an IC50 of over 8.95 µM and an IC90 of over 8.95 µM.

CN(C)C(=O)N1CCC(C(=O)N2CC(=O)N(C3CCCCC3)CC(OCc3ccncc3)C2)CC1 (configuration not stated) gave an IC50 of over 6.8 µM and an IC90 of over 6.8 µM.

CC(C)N1C(=O)N(CCc2ccccc2)C2(CCN(C3Cc4ccccc4C3)CC2)C1=O gave an IC50 of 6.55 µM and an IC90 of over 7.65 µM.

With CCN1CCC(Nc2cnc3c(c2)c(NC(=O)Cc2ccccc2)c(C(=O)OC)n3CC(C)C)CC1 the IC50 was 5.59 µM and the IC90 was over 6.71 µM.

C/C(=C\c1ccco1)CN1CCc2c(c(C(=O)NCc3ccccn3)nn2CCc2ccccc2)C1 gave an IC50 of over 6.85 µM and an IC90 of over 6.85 µM.

COC(=O)c1c(NC(=O)c2ccoc2)c2cc(NC(C)CC(F)(F)F)cnc2n1CC(C)C (configuration not stated) showed an IC50 of over 7.07 µM and an IC90 of over 7.07 µM.

COc1ccc(CNCc2ccc3ccccc3c2)cc1 gave an IC50 of over 11.9 µM and an IC90 of over 11.9 µM.

Cc1ccccc1-c1ccc(CN2CCC3(CC2)C(=O)N(Cc2cccnc2)C(=O)N3C)cc1 gave an IC50 of 2.36 µM and an IC90 of 2.76 µM.

N#CCCC(C#N)(c1ccc(F)cc1)c1cccc(F)c1C#N (configuration not stated) gave an IC50 of over 10.7 µM and an IC90 of over 10.7 µM.

CCN1C(=O)N(C2Cc3ccccc3C2)C(=O)C12CCN(Cc1c[nH]nc1-c1ccc(F)cc1)CC2 gave an IC50 of 4.54 µM and an IC90 of over 6.77 µM.

With COc1ccc(CCn2nc(C(=O)N(C)C)c3c2CCN(CCCc2ccccc2)C3)cc1 the IC50 was over 7.39 µM and the IC90 was over 7.39 µM.

COCCn1c(C(=O)OC)c(NC(=O)c2ccco2)c2cc(NC(C)Cc3ccc(C)cc3)cnc21 (configuration not stated) showed an IC50 of 3.69 µM and an IC90 of over 6.73 µM.
